Measurements taken from paper PMC8286840, “Identifying SARS-CoV-2 antiviral compounds by screening for small molecule inhibitors of Nsp3 papain-like protease” (Biochemical Journal, 2021).
Where a name gives a salt, the structure may show the parent alone. Read-outs that look alike come from different tables or passages of the source.

Experiments:
[1] = biological target: T1, SARS-CoV-2 PLpro (nsp3 1564–1878) (Severe acute respiratory syndrome coronavirus 2, UniProt P0DTD1); test: biochemical; set-up: FRET-quenched peptide (Pro3) cleavage by PLpro, 10 min pre-incubation, slope over 20 min, normalised to no-compound control; conditions: read-out: % of control remaining
[2] = biological target: T1, SARS-CoV-2 PLpro (nsp3 1564–1878); test: biochemical; set-up: FRET-quenched peptide (Pro3) cleavage by PLpro, 10 min pre-incubation, slope over 20 min, normalised to no-compound control; conditions: read-out: % of control remaining; remark: listed apart in the source

O=c1[nH]cnc2c1ncn2[C@@H]1O[C@H](CO)[C@@H](O)[C@H]1O [Inosine]
remaining activity at 1.25 µM ([1]; Well no.=5250, low concentration screen): 92.9% | remaining activity at 1.25 µM ([1]; Well no.=6147, low concentration screen): 105% | remaining activity at 1.25 µM ([1]; Well no.=8835, low concentration screen): 92.8% | remaining activity at 3.75 µM ([2]; Well no.=5250, high concentration screen): 92.9% | remaining activity at 3.75 µM ([2]; Well no.=6147, high concentration screen): 100% | remaining activity at 3.75 µM ([2]; Well no.=8835, high concentration screen): 89.2%

O=C(c1ccc(Nc2nccc(-c3cc4ccccc4s3)n2)cc1)N1CCC(N2CCCC2)CC1 [IKK 16 - N-(4-Pyrrolidin-1-yl-piperidin-1-yl)-[4-(4-benzo[b]thiophen-2-yl-pyrimidin-2-ylamino)phenyl]carboxamide hydrochloride]
remaining activity at 1.25 µM ([1]; Well no.=2542, low concentration screen): 100% | remaining activity at 3.75 µM ([2]; Well no.=2542, high concentration screen): 103%

Cc1cc(C)c2c(c1)[C@@H](N(Cc1cc(C(F)(F)F)cc(C(F)(F)F)c1)c1nnn(C)n1)CCCN2C[C@H]1CC[C@H](C(=O)O)CC1 [Evacetrapib (LY2484595)]
remaining activity at 1.25 µM ([1]; Well no.=5320, low concentration screen): 96.7% | remaining activity at 3.75 µM ([2]; Well no.=5320, high concentration screen): 100%

CC1=CC(=O)C(C(C)C)=CC1=O [Thymoquinone]
remaining activity at 1.25 µM ([1]; Well no.=3567, low concentration screen): 101% | remaining activity at 1.25 µM ([1]; Well no.=4095, low concentration screen): 102% | remaining activity at 3.75 µM ([2]; Well no.=3567, high concentration screen): 102% | remaining activity at 3.75 µM ([2]; Well no.=4095, high concentration screen): 101%

CCn1cc(-c2ccnc3[nH]c(-c4cccc(CN(C)C)c4)cc23)c(-c2ccc(NC(=O)N(C)C)cc2)n1 [GSK1070916]
remaining activity at 1.25 µM ([1]; Well no.=5031, low concentration screen): 101% | remaining activity at 3.75 µM ([2]; Well no.=5031, high concentration screen): 99.8%

NCC(CP(=O)(O)O)c1ccc(Cl)cc1 (stereo not drawn) [Phaclofen]
remaining activity at 1.25 µM ([1]; Well no.=1167, low concentration screen): 103% | remaining activity at 3.75 µM ([2]; Well no.=1167, high concentration screen): 104%

C=CC1=C(C)/C(=C/c2[nH]c(Cc3[nH]c(/C=C4\NC(=O)C(C)=C4C=C)c(C)c3CCC(=O)O)c(CCC(=O)O)c2C)NC1=O [Bilirubin]
remaining activity at 1.25 µM ([1]; Well no.=7013, low concentration screen): 103% | remaining activity at 3.75 µM ([2]; Well no.=7013, high concentration screen): 104%

COC(=O)[C@@H](N)CSC/C=C(\C)CC/C=C(\C)CCC=C(C)C [S-Farnesyl-L-cysteine methylester]
remaining activity at 1.25 µM ([1]; Well no.=4566, low concentration screen): 98.6% | remaining activity at 3.75 µM ([2]; Well no.=4566, high concentration screen): 99.1%

COc1ccc(C(=O)NCc2ccc(OCCN(C)C)cc2)cc1OC [Itopride]
remaining activity at 1.25 µM ([1]; Well no.=2226, low concentration screen): 87.9% | remaining activity at 3.75 µM ([2]; Well no.=2226, high concentration screen): 88.2%

COC(=O)c1cc(OC)c2c(c1-c1c(CO)cc(OC)c3c1OCO3)OCO2 [Bicyclol]
remaining activity at 1.25 µM ([1]; Well no.=5916, low concentration screen): 107% | remaining activity at 3.75 µM ([2]; Well no.=5916, high concentration screen): 100%

CCN(CC)CCNC(=O)c1cc(Cl)c(N)cc1OC [Metoclopramide]
remaining activity at 1.25 µM ([1]; Well no.=1696, low concentration screen): 101% | remaining activity at 1.25 µM ([1]; Well no.=6425, low concentration screen): 99.2% | remaining activity at 3.75 µM ([2]; Well no.=1696, high concentration screen): 102% | remaining activity at 3.75 µM ([2]; Well no.=6425, high concentration screen): 95%

Cc1nc2c(c(=O)[nH]1)CSCC2 [DR2313]
remaining activity at 1.25 µM ([1]; Well no.=5778, low concentration screen): 96.1% | remaining activity at 3.75 µM ([2]; Well no.=5778, high concentration screen): 96.7%

O=C(/C=C/c1ccc(O)cc1)CC(=O)/C=C/c1ccc(O)cc1 [Bisdemethoxycurcumin]
remaining activity at 1.25 µM ([1]; Well no.=6536, low concentration screen): 97.5% | remaining activity at 3.75 µM ([2]; Well no.=6536, high concentration screen): 92.4%

CC(C)(C)C[C@@H]1N[C@@H](C(=O)N[C@H]2CC[C@H](O)CC2)[C@H](c2cccc(Cl)c2F)[C@]12C(=O)Nc1cc(Cl)ccc12 [SAR405838]
remaining activity at 1.25 µM ([1]; Well no.=6550, low concentration screen): 109% | remaining activity at 3.75 µM ([2]; Well no.=6550, high concentration screen): 110%

CCN(CC)CCCCNc1ncc2cc(-c3cc(OC)cc(OC)c3)c(NC(=O)NC(C)(C)C)nc2n1 [PD173074]
remaining activity at 1.25 µM ([1]; Well no.=4767, low concentration screen): 104% | remaining activity at 3.75 µM ([2]; Well no.=4767, high concentration screen): 108%

CS(=O)(=O)N1CCN(Cc2cc3nc(-c4cccc5[nH]ncc45)nc(N4CCOCC4)c3s2)CC1 [GDC-0941]
remaining activity at 1.25 µM ([1]; Well no.=2801, low concentration screen): 103% | remaining activity at 3.75 µM ([2]; Well no.=2801, high concentration screen): 101%

CNC[C@H](O)c1ccc(O)c(O)c1 (racemic)
remaining activity at 1.25 µM ([1]; Well no.=605, low concentration screen): 99.5% | remaining activity at 3.75 µM ([2]; Well no.=605, high concentration screen): 99.2%

O=C(COc1ccc(C(=O)c2ccccc2)cc1)NC1CCN(Cc2ccccc2)CC1 [AdipoRon]
remaining activity at 1.25 µM ([1]; Well no.=7239, low concentration screen): 100% | remaining activity at 3.75 µM ([2]; Well no.=7239, high concentration screen): 96.7%

O=c1c(O)c(-c2ccc(O)c(O)c2)oc2cc(O)ccc12 [Fisetin]
remaining activity at 1.25 µM ([1]; Well no.=3443, low concentration screen): 91.4% | remaining activity at 1.25 µM ([1]; Well no.=6254, low concentration screen): 104% | remaining activity at 3.75 µM ([2]; Well no.=3443, high concentration screen): 95% | remaining activity at 3.75 µM ([2]; Well no.=6254, high concentration screen): 99.6%

CCCCC/C=C\C\C=C/C=C/C=C/[C@@H](SC[C@H](NC(=O)CC[C@H](N)C(=O)O)C(=O)NCC(=O)O)[C@@H](O)CCCC(=O)O [Leukotriene C4]
remaining activity at 1.25 µM ([1]; Well no.=4429, low concentration screen): 102% | remaining activity at 3.75 µM ([2]; Well no.=4429, high concentration screen): 101%

CN[C@@H]1C[C@H]2O[C@@](C)([C@@H]1OC)n1c3ccccc3c3c4c(c5c6ccccc6n2c5c31)C(=O)N[C@H]4O [UCN-01]
remaining activity at 1.25 µM ([1]; Well no.=2587, low concentration screen): 95.7% | remaining activity at 3.75 µM ([2]; Well no.=2587, high concentration screen): 97.5%

C[C@]12CC[C@@H]3c4ccc(O)cc4CC[C@H]3[C@@H]1CC[C@@H]2O [beta-Estradiol]
remaining activity at 1.25 µM ([1]; Well no.=511, low concentration screen): 107% | remaining activity at 3.75 µM ([2]; Well no.=511, high concentration screen): 104%

CCCC(C)(C)c1ccc2c(c1)OC(C)(C)[C@@H]1CC=C(C)C[C@@H]21 [JWH-133]
remaining activity at 1.25 µM [1]: 102% | remaining activity at 3.75 µM [2]: 104%

C[C@H](CCC(=O)O)[C@H]1CC[C@H]2[C@@H]3CC[C@@H]4C[C@H](O)CC[C@]4(C)[C@H]3C[C@H](O)[C@]12C [Deoxycholic acid]
remaining activity at 1.25 µM ([1]; Well no.=6153, low concentration screen): 107% | remaining activity at 1.25 µM ([1]; Well no.=8537, low concentration screen): 102% | remaining activity at 3.75 µM ([2]; Well no.=6153, high concentration screen): 112% | remaining activity at 3.75 µM ([2]; Well no.=8537, high concentration screen): 103%

O=C1c2c(O)cc(O)cc2O[C@H](c2ccc(O)c(O)c2)[C@H]1O [(+)-Taxifolin]
remaining activity at 1.25 µM ([1]; Well no.=3825, low concentration screen): 101% | remaining activity at 3.75 µM ([2]; Well no.=3825, high concentration screen): 101%

COc1cc(C(C)=O)cc(-c2cc(C(C)=O)cc(OC)c2O)c1O [1,1'-(6,6'-dihydroxy-5,5'-dimethoxy-[1,1'-biphenyl]-3,3'-diyl)bis(ethan-1-one)]
remaining activity at 1.25 µM ([1]; Well no.=5981, low concentration screen): 101% | remaining activity at 3.75 µM ([2]; Well no.=5981, high concentration screen): 96.6%

O=c1c(-c2ccc(O)cc2)coc2cc(O)cc(O)c12 [Genistein]
remaining activity at 1.25 µM ([1]; Well no.=573, low concentration screen): 95% | remaining activity at 1.25 µM ([1]; Well no.=3315, low concentration screen): 94.8% | remaining activity at 1.25 µM ([1]; Well no.=3947, low concentration screen): 98.6% | remaining activity at 1.25 µM ([1]; Well no.=6492, low concentration screen): 103% | remaining activity at 3.75 µM ([2]; Well no.=573, high concentration screen): 94% | remaining activity at 3.75 µM ([2]; Well no.=3315, high concentration screen): 101% | remaining activity at 3.75 µM ([2]; Well no.=3947, high concentration screen): 98.5% | remaining activity at 3.75 µM ([2]; Well no.=6492, high concentration screen): 103%

CC(=O)Oc1cc(C(C)C)c(OCCN(C)C)cc1C [Moxisylyte hydrochloride]
remaining activity at 1.25 µM ([1]; Well no.=976, low concentration screen): 103% | remaining activity at 3.75 µM ([2]; Well no.=976, high concentration screen): 101%

CS(=O)(=O)c1ccc(C2=C(c3ccccc3)C(=O)OC2)cc1 [Rofecoxib]
remaining activity at 1.25 µM ([1]; Well no.=1724, low concentration screen): 101% | remaining activity at 3.75 µM ([2]; Well no.=1724, high concentration screen): 100%

COc1ccc(CCN(C)CCc2ccc(OC)c(OC)c2)cc1OC [YS-035 hydrochloride]
remaining activity at 1.25 µM ([1]; Well no.=1246, low concentration screen): 103% | remaining activity at 3.75 µM ([2]; Well no.=1246, high concentration screen): 102%
